Measurements from PubChem BioAssay (NCI).
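Where inhibition never reached the appropriate level, the endpoint shown equals the highest concentration tested. Otherwise, values were interpolated linearly from a five-concentration, 48-hour dose response in 96-well plates. The concentration for full growth arrest is given as TGI.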

Key:
Assay in all cases: NCI tumour cell line growth inhibition, 48 h
[1] = tested on: HOP-62 NSCLC
[2] = tested on: UACC-62 melanoma
[3] = tested on: IGROV1 ovarian
[4] = tested on: M14 melanoma
[5] = tested on: OVCAR-8 ovarian
[6] = tested on: MDA-MB-435
[7] = tested on: ACHN renal
[8] = tested on: MOLT-4 leukemia
[9] = tested on: BT-549 breast
[10] = tested on: MDA-MB-231 breast
[11] = tested on: SNB-19 CNS
[12] = tested on: SR leukemia
[13] = tested on: DU-145 prostate
[14] = tested on: 786-0 renal
[15] = tested on: MCF7 breast
[16] = tested on: NCI-H23 lung
[17] = tested on: KM12 colon
[18] = tested on: U251 CNS
[19] = tested on: HT29 colon
[20] = tested on: SW-620 colon
[21] = tested on: SNB-75 CNS
[22] = tested on: UO-31 renal
[23] = tested on: COLO 205 colon
[24] = tested on: T-47D breast
[25] = tested on: LOX IMVI melanoma
[26] = tested on: OVCAR-3 ovarian
[27] = tested on: HOP-92 NSCLC
[28] = tested on: K-562 leukemia
[29] = tested on: HCC-2998 colon
[30] = tested on: PC-3 prostate
[31] = tested on: A498 renal
[32] = tested on: MALME-3M melanoma
[33] = tested on: CCRF-CEM leukemia
[34] = tested on: UACC-257 melanoma
[35] = tested on: SF-295 CNS
[36] = tested on: NCI-H522 lung
[37] = tested on: OVCAR-4 ovarian
[38] = tested on: MDA-N
[39] = tested on: SK-MEL-28 melanoma
[40] = tested on: NCI-H460 lung
[41] = tested on: EKVX NSCLC
[42] = tested on: CAKI-1 renal
[43] = tested on: HCT-116 colon
[44] = tested on: RPMI-8226 leukemia
[45] = tested on: NCI-H226 lung
[46] = tested on: SF-539 CNS
[47] = tested on: TK-10 renal
[48] = tested on: SF-268 CNS
[49] = tested on: SN12C renal
[50] = tested on: SK-OV-3 ovarian
[51] = tested on: SK-MEL-2 melanoma
[52] = tested on: NCI/ADR-RES ovarian
[53] = tested on: A549 NSCLC
[54] = tested on: RXF 393 renal
[55] = tested on: OVCAR-5 ovarian
[56] = tested on: HCT-15 colon
[57] = tested on: SK-MEL-5 melanoma
[58] = tested on: HL-60(TB) leukemia
[59] = tested on: HS 578T breast

Compound: C=C(CCC/C(C)=C/C=C/[C@H](C)CCCc1ccoc1)C[C@@H]1OC(=O)[C@H](C)[C@@H]1O
- TGI [1]: 18.8 µM
- TGI [2]: 16.6 µM
- TGI [3]: 24.6 µM
- TGI [4]: 19.4 µM
- TGI [5]: 27.5 µM
- TGI [6]: 18.5 µM
- TGI [7]: 18.4 µM
- TGI [8]: 29.5 µM
- TGI [9]: 16.9 µM
- TGI [10]: 19.4 µM
- TGI [11]: 17.1 µM
- TGI [12]: 37.8 µM
- TGI [13]: 19 µM
- TGI [14]: 27.4 µM
- TGI [15]: 33.9 µM
- TGI [16]: 18.2 µM
- TGI [17]: 23.3 µM
- TGI [18]: 24.3 µM
- TGI [19]: 50 µM
- TGI [20]: 26.7 µM
- TGI [21]: 17.3 µM
- TGI [22]: 15.6 µM
- TGI [23]: 27.4 µM
- TGI [24]: 17.6 µM
- TGI [25]: 31.6 µM
- TGI [26]: 17.6 µM
- TGI [27]: 18.5 µM
- TGI [28]: 28.6 µM
- TGI [29]: 37 µM
- TGI [30]: 17.2 µM
- TGI [31]: 17.2 µM
- TGI [32]: 19.8 µM
- TGI [33]: 33.6 µM
- TGI [34]: 16.4 µM
- TGI [35]: 22.9 µM
- TGI [36]: 18.8 µM
- TGI [37]: 13.1 µM
- TGI [38]: 20.5 µM
- TGI [39]: 15.6 µM
- TGI [40]: 45 µM
- TGI [41]: 21 µM
- TGI [42]: 19.2 µM
- TGI [43]: 42.4 µM
- TGI [44]: 30.2 µM
- TGI [45]: 16.6 µM
- TGI [46]: 19.2 µM
- TGI [47]: 22.2 µM
- TGI [48]: 18.1 µM
- TGI [49]: 17.7 µM
- TGI [50]: 16.8 µM
- TGI [51]: 17.8 µM
- TGI [52]: 22.5 µM
- TGI [53]: 15.2 µM
- TGI [54]: 14.2 µM
- TGI [55]: 23.8 µM
- TGI [56]: 27.4 µM
- TGI [57]: 17 µM

Compound: C/C(=N\O)C1CC2C=C(C#N)C1N(Cc1ccccc1)C2 (configuration not stated)
- TGI [1]: > 100 µM
- TGI [2]: > 100 µM
- TGI [4]: > 100 µM
- TGI [5]: > 100 µM
- TGI [6]: > 100 µM
- TGI [7]: > 100 µM
- TGI [58]: > 100 µM
- TGI [8]: > 100 µM
- TGI [10]: > 100 µM
- TGI [59]: > 100 µM
- TGI [11]: > 100 µM
- TGI [12]: > 100 µM
- TGI [13]: > 100 µM
- TGI [14]: > 100 µM
- TGI [15]: > 100 µM
- TGI [16]: > 100 µM
- TGI [17]: > 100 µM
- TGI [18]: > 100 µM
- TGI [19]: > 100 µM
- TGI [20]: > 100 µM
- TGI [21]: > 100 µM
- TGI [22]: > 100 µM
- TGI [23]: > 100 µM
- TGI [24]: > 100 µM
- TGI [25]: > 100 µM
- TGI [26]: > 100 µM
- TGI [27]: > 100 µM
- TGI [28]: > 100 µM
- TGI [29]: > 100 µM
- TGI [30]: > 100 µM
- TGI [31]: > 100 µM
- TGI [32]: > 100 µM
- TGI [33]: > 100 µM
- TGI [34]: > 100 µM
- TGI [35]: > 100 µM
- TGI [38]: > 100 µM
- TGI [39]: > 100 µM
- TGI [40]: > 100 µM
- TGI [41]: > 100 µM
- TGI [42]: > 100 µM
- TGI [43]: > 100 µM
- TGI [44]: > 100 µM
- TGI [45]: > 100 µM
- TGI [46]: > 100 µM
- TGI [47]: > 100 µM
- TGI [48]: > 100 µM
- TGI [49]: > 100 µM
- TGI [50]: > 100 µM
- TGI [52]: > 100 µM
- TGI [53]: > 100 µM
- TGI [54]: > 100 µM
- TGI [55]: > 100 µM
- TGI [56]: > 100 µM
- TGI [57]: > 100 µM

Compound: CCCn1c(=O)c2nn3c(=O)n(CCC)c(=O)c3nn2c1=O
- TGI [1]: > 100 µM
- TGI [2]: > 100 µM
- TGI [3]: > 100 µM
- TGI [4]: > 100 µM
- TGI [5]: > 100 µM
- TGI [6]: > 100 µM
- TGI [7]: > 100 µM
- TGI [58]: > 100 µM
- TGI [8]: > 100 µM
- TGI [9]: > 100 µM
- TGI [59]: > 100 µM
- TGI [11]: > 100 µM
- TGI [12]: > 100 µM
- TGI [13]: > 100 µM
- TGI [14]: > 100 µM
- TGI [15]: > 100 µM
- TGI [16]: > 100 µM
- TGI [17]: > 100 µM
- TGI [18]: > 100 µM
- TGI [19]: > 100 µM
- TGI [20]: > 100 µM
- TGI [21]: > 100 µM
- TGI [22]: > 100 µM
- TGI [23]: > 100 µM
- TGI [24]: > 100 µM
- TGI [25]: > 100 µM
- TGI [26]: > 100 µM
- TGI [27]: > 100 µM
- TGI [28]: > 100 µM
- TGI [29]: > 100 µM
- TGI [30]: > 100 µM
- TGI [32]: > 100 µM
- TGI [33]: > 100 µM
- TGI [34]: > 100 µM
- TGI [35]: > 100 µM
- TGI [36]: > 100 µM
- TGI [37]: > 100 µM
- TGI [38]: > 100 µM
- TGI [39]: > 100 µM
- TGI [40]: > 100 µM
- TGI [41]: > 100 µM
- TGI [42]: > 100 µM
- TGI [43]: > 100 µM
- TGI [44]: > 100 µM
- TGI [45]: > 100 µM
- TGI [46]: > 100 µM
- TGI [47]: > 100 µM
- TGI [48]: > 100 µM
- TGI [49]: > 100 µM
- TGI [50]: > 100 µM
- TGI [51]: > 100 µM
- TGI [52]: > 100 µM
- TGI [53]: > 100 µM
- TGI [54]: > 100 µM
- TGI [55]: > 100 µM
- TGI [56]: > 100 µM
- TGI [57]: > 100 µM

Compound: C1=C(c2ccccc2)O[C@H](COCc2ccccc2)C(OCc2ccccc2)[C@@H]1OCc1ccccc1 (some centres not stated)
- TGI [1]: > 10 µM
- TGI [2]: > 10 µM
- TGI [3]: > 10 µM
- TGI [4]: > 10 µM
- TGI [5]: > 10 µM
- TGI [58]: > 10 µM
- TGI [8]: > 10 µM
- TGI [10]: > 10 µM
- TGI [12]: > 10 µM
- TGI [13]: > 10 µM
- TGI [14]: > 10 µM
- TGI [15]: > 10 µM
- TGI [16]: > 10 µM
- TGI [17]: > 10 µM
- TGI [19]: > 10 µM
- TGI [20]: > 10 µM
- TGI [21]: > 10 µM
- TGI [23]: > 10 µM
- TGI [24]: > 10 µM
- TGI [28]: > 10 µM
- TGI [29]: > 10 µM
- TGI [30]: > 10 µM
- TGI [32]: > 10 µM
- TGI [33]: > 10 µM
- TGI [34]: > 10 µM
- TGI [35]: > 10 µM
- TGI [38]: > 10 µM
- TGI [39]: > 10 µM
- TGI [41]: > 10 µM
- TGI [42]: > 10 µM
- TGI [44]: > 10 µM
- TGI [47]: > 10 µM
- TGI [48]: > 10 µM
- TGI [49]: > 10 µM
- TGI [50]: > 10 µM
- TGI [53]: > 10 µM
- TGI [54]: > 10 µM
- TGI [56]: > 10 µM
- TGI [57]: > 10 µM
